Test results taken from the supplement of paper PMC11061612.

Legend:
[1] = system: DU-145 (Prostate Carcinoma); assay: Bliss excess, mean over the matrix (fraction); higher = more synergy;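 also: after 72 h of two-drug dosing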
Outline: (§1)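 After 24 hours at 37°C and 5% CO2 in 1536-well plates, cells in DMEM/F12 or RPMI plus 10% FBS received two-drug dose matrices for 72 hours. Viability came from CellTiter-Glo 2.0 luminescence and was scaled as inhibition, anchored at 0 by vehicle wells and at 1 by blank wells. Combination Emax is taken as the second-highest inhibition in the matrix, and Bliss excess as the observed combination effect less EA + EB − EA·EB, with EA and EB the single-agent effects.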

[2] = system: ML-2 (Acute Myeloid Leukemia); assay: combination Emax (second highest fraction inhibited in the dose matrix, 72 h); higher = more inhibition; extreme values may be limits of the assay
Outline: as §1

[3] = system: NCI-H1993 (Lung Adenocarcinoma); assay: as above
Outline: as §1

[4] = system: EFO-21 (Ovarian Carcinoma); assay: as above
Outline: as §1

[5] = system: SW872 (Other Solid Carcinomas); assay: as above
Outline: as §1

SK-N-AS (Neuroblastoma) = assay: as above
Outline: as §1

[6] = system: SW982 (Other Solid Carcinomas); assay: as above
Outline: as §1

[7] = system: ME-180 (Cervical Carcinoma); assay: as above
Outline: as §1

[8] = system: MV-4-11 (Acute Myeloid Leukemia); assay: as above
Outline: as §1

Compound	Bliss excess [1]	combination Emax [2]	combination Emax [3]	combination Emax [4]	combination Emax [5]	combination Emax (SK-N-AS (Neuroblastoma))	combination Emax [6]	combination Emax [7]	combination Emax [8]
C=CCn1c(=O)c2cnc(Nc3ccc(N4CCN(C)CC4)cc3)nc2n1-c1cccc(C(C)(C)O)n1 [AZD1775] + CCc1c2c(nc3ccc(O)cc13)-c1cc3c(c(=O)n1C2)COC(=O)[C@]3(O)CC [SN-38] (first compound max 1 µM, partner max 0.3 µM)	-0.0641	1	0.739	0.466	0.933	0.844	0.866	0.973	0.999
C=CCn1c(=O)c2cnc(Nc3ccc(N4CCN(C)CC4)cc3)nc2n1-c1cccc(C(C)(C)O)n1 [AZD1775] + Nc1ccn([C@@H]2O[C@H](CO)[C@@H](O)C2(F)F)c(=O)n1 [Gemcitabine] (first compound max 1 µM, partner max 0.3 µM)	-0.0385	1	0.905	0.482	0.825	0.704	0.888	0.94	1
CN(CCO)CC[C@H](CSc1ccccc1)Nc1ccc(S(=O)(=O)NC(=O)c2ccc(N3CCC([C@@H](O)c4ccccc4-c4ccc(Cl)cc4)CC3)cc2)cc1S(=O)(=O)C(F)(F)F [AZD4320] + CS(=O)(=O)CCNCc1ccc(-c2ccc3ncnc(Nc4ccc(OCc5cccc(F)c5)c(Cl)c4)c3c2)o1 [Lapatinib] (first compound max 1 µM, 7x7, partner max 10 µM)	-0.028	1	0.943	0.491	0.198	0.197	0.968	0.7	1
Cc1c2c(nn1C)CSCc1cc(n(C)n1)CSc1cc(c3ccccc3c1)OCCCc1c(C(=O)O)n(C)c3c-2c(Cl)ccc13 [AZD5991] + CC(=O)O[C@H]1C(=O)[C@@]2(C)[C@H]([C@H](OC(=O)c3ccccc3)[C@]3(O)C[C@H](OC(=O)[C@H](O)[C@@H](NC(=O)c4ccccc4)c4ccccc4)C(C)=C1C3(C)C)[C@]1(OC(C)=O)CO[C@@H]1C[C@@H]2O [Paclitaxel] (first compound max 1 µM, 7x7, partner max 3 µM)	0.0077	1	0.863	0.368	0.869	0.83	0.953	0.7	1
Cc1c2c(nn1C)CSCc1cc(n(C)n1)CSc1cc(c3ccccc3c1)OCCCc1c(C(=O)O)n(C)c3c-2c(Cl)ccc13 [AZD5991] + CS(=O)(=O)CCNCc1ccc(-c2ccc3ncnc(Nc4ccc(OCc5cccc(F)c5)c(Cl)c4)c3c2)o1 [Lapatinib] (first compound max 1 µM, 7x7, partner max 10 µM)	-0.034	1	0.433	0.277	0.32	0.395	0.621	0.492	1
Cc1c2c(nn1C)CSCc1cc(n(C)n1)CSc1cc(c3ccccc3c1)OCCCc1c(C(=O)O)n(C)c3c-2c(Cl)ccc13 [AZD5991] + Nc1ccn([C@@H]2O[C@H](CO)[C@@H](O)C2(F)F)c(=O)n1 [Gemcitabine] (first compound max 1 µM, 7x7, partner max 0.3 µM)	-0.0284	1	0.902	0.379	0.811	0.717	0.844	0.754	1
C[C@@H]1COCCN1c1cc(C2([S@](C)(=N)=O)CC2)nc(-c2ccnc3[nH]ccc23)n1 [AZD6738] + C1CC(C1)(C(=O)[O-])C(=O)[O-].N.N.[Pt+2] [Carboplatin] (first compound max 10 µM, 7x7, partner max 10 µM)	-0.043	0.916	0.547	0.263	0.456	0.69	0.665	0.663	0.974
C[C@@H]1COCCN1c1cc(C2([S@](C)(=N)=O)CC2)nc(-c2ccnc3[nH]ccc23)n1 [AZD6738] + Nc1ccn([C@@H]2O[C@H](CO)[C@@H](O)C2(F)F)c(=O)n1 [Gemcitabine] (first compound max 10 µM, 7x7, partner max 0.3 µM)	0.0742	1	0.939	0.625	0.907	0.801	0.949	0.913	1
C[C@@H](Nc1cc(F)cc(F)c1)c1cc(C(=O)N(C)C)cc2c(=O)cc(N3CCOCC3)oc12 [AZD8186] + C1CN(CCC1(C(=O)N[C@@H](CCO)C2=CC=C(C=C2)Cl)N)C3=NC=NC4=C3C=CN4 [AZD5363] (first compound max 10 µM, 7x7, partner max 10 µM)	-0.0038	0.558	0.636	0.235	0.427	0.135	0.512	0.579	0.731
C[C@@H](Nc1cc(F)cc(F)c1)c1cc(C(=O)N(C)C)cc2c(=O)cc(N3CCOCC3)oc12 [AZD8186] + CC(=O)c1c(C)c2cnc(Nc3ccc(N4CCNCC4)cn3)nc2n(C2CCCC2)c1=O [Palbociclib] (first compound max 10 µM, 7x7, partner max 10 µM)	0.0147	0.686	0.578	0.325	0.359	0.281	0.639	0.391	0.859
C[C@@H](Oc1cc(-c2cnn(C3CCNCC3)c2)cnc1N)c1c(Cl)ccc(F)c1Cl [Crizotinib] + CC1=C(C(=CC=C1)Cl)NC(=O)C2=CN=C(S2)NC3=CC(=NC(=N3)C)N4CCN(CC4)CCO [Dasatinib] (first compound max 10 µM, 7x7, partner max 2 µM)	0.0158	0.969	0.811	0.701	0.615	0.491	1	0.644	0.985
C[C@@H](Oc1cc(-c2cnn(C3CCNCC3)c2)cnc1N)c1c(Cl)ccc(F)c1Cl [Crizotinib] + Cn1cnc2c(F)c(Nc3ccc(Br)cc3Cl)c(C(=O)NOCCO)cc21 [Selumetinib] (first compound max 10 µM, 7x7, partner max 10 µM)	-0.0321	1	0.871	0.224	0.338	0.585	0.973	0.269	1
CS(=O)(=O)CCNCc1ccc(-c2ccc3ncnc(Nc4ccc(OCc5cccc(F)c5)c(Cl)c4)c3c2)o1 [Lapatinib] + Cn1cnc2c(F)c(Nc3ccc(Br)cc3Cl)c(C(=O)NOCCO)cc21 [Selumetinib] (first compound max 10 µM, 7x7, partner max 10 µM)	0.0008	0.715	0.73	0.331	0.25	0.441	0.66	0.476	0.642
O=C(c1cc(Cc2n[nH]c(=O)c3ccccc23)ccc1F)N1CCN(C(=O)C2CC2)CC1 [Olaparib] + CC1(C)CCC(CN2CCN(c3ccc(C(=O)NS(=O)(=O)c4ccc(NCC5CCOCC5)c([N+](=O)[O-])c4)c(Oc4cnc5[nH]ccc5c4)c3)CC2)=C(c2ccc(Cl)cc2)C1 [Venetoclax] (first compound max 10 µM, 7x7, partner max 1 µM)	-0.0254	0.961	0.0726	0.0952	0.141	0.106	0.432	0.14	1
O=C(c1cc(Cc2n[nH]c(=O)c3ccccc23)ccc1F)N1CCN(C(=O)C2CC2)CC1 [Olaparib] + CN(CC[C@H](CSC1=CC=CC=C1)NC2=C(C=C(C=C2)S(=O)(=O)NC(=O)C3=CC=C(C=C3)N4CCC(CC4)[C@H](C5=CC=CC=C5C6=CC=C(C=C6)Cl)O)S(=O)(=O)C(F)(F)F)CCO [AZD4320] (first compound max 10 µM, 7x7, partner max 1 µM)	-0.0305	0.979	0.595	0.172	0.133	0.112	0.709	0.18	1
O=C(c1cc(Cc2n[nH]c(=O)c3ccccc23)ccc1F)N1CCN(C(=O)C2CC2)CC1 [Olaparib] + COc1nnc2ccc(N3CCC(c4ccc(OCCN5CCN(C)C(=O)[C@H]5C)cc4)CC3)nn12 [AZD5153] (first compound max 10 µM, 7x7, partner max 1 µM)	-0.0708	0.917	0.459	0.353	0.568	0.326	0.787	0.424	1
O=C(c1cc(Cc2n[nH]c(=O)c3ccccc23)ccc1F)N1CCN(C(=O)C2CC2)CC1 [Olaparib] + Cc1c2c(nn1C)CSCc1cc(n(C)n1)CSc1cc(c3ccccc3c1)OCCCc1c(C(=O)O)n(C)c3c-2c(Cl)ccc13 [AZD5991] (first compound max 10 µM, 7x7, partner max 1 µM)	-0.0348	1	0.124	0.117	0.157	0.258	0.491	0.1	1
Cc1nc(-c2cn3c(n2)-c2ccc(-c4cnn(C(C)(C)C(N)=O)c4)cc2OCC3)n(C(C)C)n1 [Taselisib] + O=C(Nc1ccc2[nH]nc(-c3ccncc3)c2c1)[C@@H]1CCN(CC(=O)N2CCN(c3ccc(-c4ncccn4)cc3)CC2)C1 [SCH772984] (first compound max 10 µM, 7x7, partner max 5 µM)	0.0551	1	0.886	0.409	0.636	0.494	0.908	0.732	0.905
CC1(C)CCC(CN2CCN(c3ccc(C(=O)NS(=O)(=O)c4ccc(NCC5CCOCC5)c([N+](=O)[O-])c4)c(Oc4cnc5[nH]ccc5c4)c3)CC2)=C(c2ccc(Cl)cc2)C1 [Venetoclax] + CS(=O)(=O)CCNCc1ccc(-c2ccc3ncnc(Nc4ccc(OCc5cccc(F)c5)c(Cl)c4)c3c2)o1 [Lapatinib] (first compound max 1 µM, 7x7, partner max 10 µM)	-0.0511	0.977	0.262	0.153	0.0911	0.118	0.437	0.427	1
